From patent US20250312365A1, “METHODS FOR INHIBITION OF SQUAMOUS CARCINOMA CELLS USING CERAMIDE MODULATORS” (The Trustees of Indiana University, priority 2024, published 2025)
Entries after “also recorded” stand apart in the source; their conditions may differ.

Key:
[1] = test system: healthy oral epithelial cells; assay: ASAH1 expression and dihydroceramide accumulation in healthy oral epithelial cells; assay type: cell-based; conditions: preliminary findings
Text: Applicant performed in vitro studies to determine the effect of PEDHC and PGDHC on the proliferation of oral cancer cells via downregulation of acid ceramidase, thereby contributing to the accumulation of intracellular ceramides. […] Furthermore, PGDHC diminished metabolites in at least five different cell survival metabolomic pathways in OSCC cells but not in healthy cells. The metabolomic pathways included folate metabolism, arginine and proline metabolism, triacylglycerol biosynthesis de novo, mitochondrial election transport chain, and glycine and serine metabolism. […] In contrast to current approaches for undermining the viability of oral squamous cell carcinoma and treating OSCC, the present disclosure relates in some aspects to methods and compositions for selectively interfering with any of the growth, viability, proliferation, migration, and metastasis of oral squamous cell carcinoma.

[2] = test system: ASAH1; assay: ASAH1 (acid ceramidase) mRNA expression in OECM1 cells; assay type: cell-based, human; conditions: 0.1 or 1 μg/ml of PGDHC
Text: Exemplary ceramidase genes, the expression of which can be measured to determine upregulation, include but are not limited to ASAH1, ACER2, and ACER3. A determination of ceramidase gene expression can be made according to methods available to one of skill in the art. For example, Yamada et al., J Cell Mol Med. 2023 May;27(9):1290-1295 and Kyriakou et al., Int. J. Mol. Sci. 2020, 21(5):1607 describes measuring the mRNA levels of ceramidases by RNA extraction and RT-PCR.
To test this hypothesis, it was first determined whether artificially elevated intracellular concentration of ceramide species affect the expression of acid/ASAH1, neutral/ASAH2, and alkaline1-3/ACER1-3 ceramidases in oral squamous cell carcinoma cells using C6-ceramide. Applicant previously reported that C6-ceramide serves as a positive control for PGDHC-mediated inflammation (Kanzaki et al., Biochim Biophys Acta Mol Cell Biol Lipids. 2017 May;1862(5):452-462) and promotes the intracellular accumulation of ceramide in cancer cells. See, e.g., Zhang et al., Front Plant Sci. 2020 Feb. 26:11:145, Zhai et al., Biochem Biophys Res Commun. 2015 December;468(1-2):274-80, Wilhelm et al., Cancers (Basel). 2021 Jan. 13;13(2):270, and Chapman et al., Biochem Pharmacol. 2010 Aug. 1;80(3):308-15.
Next, the effect of PGDHC on ceramidase gene expression was determined. OECM1 and SCC4 cells were exposed to 0.1 or 1 μg/ml of PGDHC. The mRNA levels of ceramidases were then measured following PGDHC exposure. PGDHC inhibited the expression of ASAH1 and ACER2 mRNAs in OECM1 (FIG. 8). […] See, e.g., Vijayan et al., J Adv Res. 2023 Dec. 21:S2090-1232(23)00403-4, Doan et al., Oncotarget. 2017 Nov. 7;8(68):112662-112674., Lai et al., Sci Rep. 2021 May 27;11(1):11221, Liu et al., Cancer Sci. 2020 July;111(7):2259-2274., and Liu et al., Front Genet. 2023 Mar. 1:14:1148437.
To elucidate the effects of C16:0 and dh-C16:0 on oral squamous cell carcinoma, the ability of exogenous C16:0 and dh-C16:0 to modulate proliferation and ceramidase expression in OECM1 cells was determined. […] In contrast, no effect of C16:0 on ASAH1 and ACER2 mRNA expressions.
We evaluated the effect of a15:0-i15:0 phosphoethanolamine phospholipid (FIG. 1D), isolated from the gut bacteria Akkermansia muciniphila on OSCC cells.

[3] = test system: OECM1 cells; assay: Untargeted metabolomic pathway analysis (LC/MS) in OECM1 cells; assay type: cell-based, human; conditions: 1 μg/ml for 6 h
Text: Based on this analysis, at least 5 different cell survival metabolomic pathways, underlined in red were diminished in OSCC (OECM1 and SCC9), but not in healthy epithelial OBA9 cells in response to PGDHC. The 5 pathways were folate metabolism, arginine and proline metabolism, glycine and serine metabolism, de novo triacylglycerol biosynthesis, and mitrochondrial electron transport chain.
The plots in FIGS. 16A and 16B display the enriched pathways identified in the analysis, with their corresponding significance levels represented on the x-axis. The significance threshold (p<0.05) is denoted by the dashed line. […] Additionally, the color of the dots represents the enrichment, which indicates the extent to which the metabolites in the pathway were clustered amongst the compounds with the most positive fold-changes (positive enrichments), the most negative fold-changes (negative enrichments), or uniformly distributed across high and low fold-change compounds (enrichment values near 0.0). […] Polar and lipid metabolites were analyzed with hydrophilic interaction chromatography (HILIC/MS) and liquid chromatography (LC/MS), respectively. Mass spectrometry analysis was completed with a mass range of 67-1500 Da with 1 scan/sec and a mass resolution of 120,000 in both positive and negative ionization mode. The MS/MS mass-spectrometry data were acquired in a data-dependent iterative fashion with a 1.3 m/z isolation window. Based upon this metabolomic analysis, phosphoglycerol dihydroceramide (PGDHC) isolated from Porphyromonas gingivalis inhibits metabolomic pathways essential for cell survival in oral squamous cell carcinoma cells (OSCC).
The Warburg effect is a metabolic phenomenon observed in many cancer cells, where the cells preferentially use glycolysis metabolism to produce energy instead of oxidative phosphorylation. The Warburg effect is a hallmark of rapid cancer cell growth. Therefore, we evaluated whether PGDHC altered Warburg effect in OSCM1 and SCC9 oral squamous cell carcinoma cells (FIG. 17A), but not healthy epithelial OBA9 cells (FIG. 17B), in vitro. Cells were stimulated with PGDHC (1 μg/ml) for 6 h and the untargeted metabolomic analysis was performed using LC/MS mass-spectrometry. Polar and lipid metabolites were analyzed with HILIC/MS and LC/MS, respectively. Mass spectrometry analysis was completed with a mass range of 67-1500 Da with 1 scan/sec and a mass resolution of 120,000 in both positive and negative ionization mode. MS/MS data were acquired in a data-dependent iterative fashion with a 1.3 m/z isolation window.
Based upon the impact of PGDHC on the Warburg effect in OSCC cells, we further analyzed the levels of cancer-survival metabolites adenosine triphosphate (ATP) and glucose in the OECM1, SCC9, and OBA9 cells described in Example 11. As shown in FIG. 18A and FIG. 18B, PGDHC altered the levels of both ATP and glucose in OECM1 and SCC9 oral squamous cell carcinoma cells, but not OBA9. The metabolites levels are presented as the relative abundance based on the data presented in FIG. 16 and FIG. 17 heat maps.

[4] = test system: Vimentin; assay: Western blot of Vimentin in OECM1 cells; assay type: cell-based, human; conditions: 24 h of treatment
Method: To determine the effect of PGDHC on cell markers involved in metastasis, the protein levels of p-STAT3, EMT markers, E-cadherin, N-cadherin, and Vimentin in OECM1 cells following in vitro exposure to PGDHC were determined by Western blot assay.

## phosphoglycerol dihydroceramide [PGDHC]
[1]
  inhibition of ASAH1 expression and accumulation of dihydroceramide in healthy oral epithelial cells: not observed
[2]
  expression of ASAH1 mRNA in OECM1: inhibits; also recorded: dramatically inhibited
[3]
  Warburg effect in OECM1 cells: altered
  arginine and proline metabolism in OECM1 cells: diminished accumulation; also recorded: inhibits
  de novo triacylglycerol biosynthesis in OECM1 cells: diminished accumulation; also recorded: inhibits
  folate metabolism in OECM1 cells: diminished accumulation; also recorded: inhibits
  glycine and serine metabolism in OECM1 cells: diminished accumulation; also recorded: inhibits
  level of ATP in OECM1 cells (relative abundance): altered
  level of glucose in OECM1 cells (relative abundance): altered
  mitochondrial electron transport in OECM1 cells: diminished accumulation; also recorded: inhibits
[4]
  protein level of Vimentin in OECM1 cells: little to no detectable effect
